From patent publication US11478496B2, “Treatments of prostate cancer” (THE FLORIDA INTERNATIONAL UNIVERSITY BOARD OF TRUSTEES, priority 2020, dated 2022)

Key:
FEN1 = FEN1 (Homo sapiens, UniProt P39748); test: FEN1 activity; assay type: biochemical
Method: 10 μM hit compounds were incubated with 10 nM pol β, 10 nM FEN1 and 20 nM LIG I in BER reaction buffer containing 50 mM Tris-HCl (pH 7.5), 50 mM KCl, 0.1 mM EDTA, 0.1 mg/ml bovine serum albumin, and 0.01% Nonidet P-40 in the presence of 5 mM Mg^2+ and 2 mM ATP. The compounds were initially preincubated with a BER enzyme at varying concentrations for 1 h with rotation. This was followed by the addition of 25 nM ^32P-labeled substrate containing an abasic site, which was precut with 25 or 50 nM APEI. The reaction mixture (20 μL) was incubated at 37° C. for 30 min, and the reaction was terminated by 50 mM EDTA. Substrates, products, and unrepaired BER intermediates were separated by 15% urea-denaturing sequencing gel and detected by a Pharos FX Plus PhosphorImager (Bio-Rad, Hercules, Calif.).

PNT1A cells = test: RTCA impedance proliferation assay, PNT1A; assay type: cell-based; details: 10 μM
Method: (6A-6B) PNT1A cells were plated onto xCelligence E-plates at 5×10^4 cells per well in media supplemented with 10% FBS (6A) or CSS (6B). Cells were allowed to attach overnight and treated with vehicle (DMSO) or 10 μM of indicated compounds. Cellular impedance was monitored continuously with 30 min intervals. (6C) RWPE1 cells were plated at 5×10^4 cells per well in serum free medium supplemented with Epidermal Growth Factor (EGF) and Bovine Pituitary Extract ([…]) onto E-plates and treated with 10 μM of indicated compounds as indicated. […] Background impedance was established after incubating E-plates (Acea Biosciences, San Diego, Calif.) with 50 μL media at room temperature for 30 min and placed in RTCA. Cells were then seeded in 100 μL per well. Cells attached overnight and then treated. During attachment stage and after treatment impedance was measured every 30 min. Impedance is represented by cell index and is calculated as follows: CI=(Zi−Zo)/15Ω where Zi is impedance at an individual time point, and Zo is the background impedance. Average CI was calculated from four wells per treatment at each time point and normalized to the impedance immediately after compound addition.

LNCaP cells = test: Cell Titer Glo cell viability assay, LNCaP; assay type: cell-based; details: 10 μM; androgen depleted conditions (CSS); 24 and 48 h
Method: FIGS. 3A-3B show cellular toxicity of the lead compounds in androgen-dependent prostate cancer cell lines. (3A) LNCaP cells were plated in a 96-well plate at 1×10^4 cells/well in the presence of Fetal Bovine Serum (FBS) or Charcoal stripped Serum (CSS). Cells were allowed to attach overnight and were treated with either vehicle (DMSO) or 10 μM of indicated compound. At 24 and 48 h cellular viability was compared using the Cell Titer Glo Luminescent Cell Viability kit. (3B) LAPC4 cells were plated in a 96-well plate at a density of 1×10^4 cells/well in the presence of FBS or CSS. Cells were allowed to attach overnight and treated with 10 μM of indicated compound.
(§1) Cell viability was determined using the Cell Titer Glo Cell Viability Assay (Promega, Madison, Wis.), as recommended by manufacturer. All experiments were performed in quadruplicate.

LAPC4 xenograft = tested on: LAPC4 xenograft
Description: Human prostate cancer cell line LAPC4 is used to implant into immunocompromised NOD scid male mice. Once tumor sizes reach 0.5 cm^3, the mice are separated into two groups. […] At the end of the 4-week treatment, mice are euthanized. Their tumors are excised and weighed. Tumors, samples of adjacent nonmalignant tissues, and prostates are collected for comparative analysis.
A portion of the tumor is used for RNA-Seq (RNA sequencing) analysis to reveal the presence and quantity of the entire set of RNA present in these cells.
These measurements are performed using a fluorescence-based in situ DNA damage and repair assay.

LAPC4 cells = test: RTCA impedance proliferation assay, LAPC4; assay type: cell-based, human; details: 10 μM; medium with both FBS and CSS
Method: (5A-5B) LNCaP cells were plated onto xCelligence E-plates at 10^4 cells per well in medium supplemented with either 10% FBS (5A) or 10% CSS (5B) serum. Cells attached overnight and were treated with vehicle (DMSO) or 10 μM of the indicated compounds. (5C-5D) LAPC4 cells were plated at 5×10^4 cells per well onto xCelligence E-plates in media supplemented with FBS (5C) or CSS (5D) and allowed to attach overnight. Treatment was conducted as in (5A-5B) and impedance measured continuously in 30 min intervals. […] Proliferation assays were done using Roche DP Real Time Cell Analyzer (RTCA), as described by the manufacturer. Background impedance was established after incubating E-plates (Acea Biosciences, San Diego, Calif.) with 50 μL media at room temperature for 30 min and placed in RTCA. Cells were then seeded in 100 μL per well. Cells attached overnight and then treated. During attachment stage and after treatment impedance was measured every 30 min. Impedance is represented by cell index and is calculated as follows: CI=(Zi−Zo)/15Ω where Zi is impedance at an individual time point, and Zo is the background impedance. Average CI was calculated from four wells per treatment at each time point and normalized to the impedance immediately after compound addition.

RWPE1 cells = test: Cell Titer Glo cell viability assay, RWPE1; assay type: cell-based; details: 10 μM; after 24 h and 48 h; serum free medium with EGF and BPE
Method: FIGS. 4A-4B show cellular toxicity of lead compounds in nonmalignant androgen independent prostate-derived cell lines. (4A) PNT1A cells were plated in a 96-well plate at 1×10^4 cell/well in the presence of FBS or CSS. Cells were allowed to attach overnight and were treated with either vehicle (DMSO) or 10 μM of indicated compound. At 24 and 48 h, cellular viability was compared using the Cell Titer Glo Luminescent Cell Viability kit. (4B) RWPE1 cells were plated in a 96-well plate at 1×10^4 cells/well using the specified serum free media. Cells were allowed to attach overnight and treated with 10 μM of indicated compound.
as §1
Next, whether the same concentration of compounds decreases the viability of the AR negative and nonmalignant prostate derived cells, PNT1A and RWPE1, was tested.

pol β = pol β (Homo sapiens, UniProt P06746); test: Pol β DNA synthesis on 1-nt gap substrate; assay type: biochemical
Method: Lane 1 represents the substrate only. Lanes 2 and 3 indicates the reaction mixture with 5 nM LIG I in the absence and presence of DMSO. […] The substrate was ^32P-labeled at the 5′-end of the upstream strand and is illustrated above the gel. The experiments were repeated at least three times. Representative gel is illustrated. Quantification of the results is shown below the gel. Two-way ANOVA with Tukey's multiple comparison posttests was used to determine statistically significant differences. * signifies p<0.05 compared to the control reaction with LIG I and DMSO. […] Lane 1 represents the substrate only. Lanes 2 and 3 indicates the reaction mixture with 5 nM pol β in the absence and presence of DMSO. […] The substrate was ^32P-labeled at the 5′-end of the upstream strand and is illustrated above the gel. The experiments were repeated at least three times. Quantification of the results are shown below the gel. Two-way ANOVA with Tukey's multiple comparison posttests was used to determine statistical significance. * signifies p<0.05 compared to the control reaction with pol β and DMSO.
BER reactions were terminated by adding 2× stopping buffer containing 95% formamide and 10 mM EDTA. Reaction mixtures were then denatured at 95° C. for 5 min and separated by 15% urea-denaturing polyacrylamide gel electrophoresis. Substrates and products were detected and analyzed using a Pharos FX Plus PhosphorImager (Bio-Rad, Hercules, Calif.).

Chain of FEN1 (P39748 whole entry): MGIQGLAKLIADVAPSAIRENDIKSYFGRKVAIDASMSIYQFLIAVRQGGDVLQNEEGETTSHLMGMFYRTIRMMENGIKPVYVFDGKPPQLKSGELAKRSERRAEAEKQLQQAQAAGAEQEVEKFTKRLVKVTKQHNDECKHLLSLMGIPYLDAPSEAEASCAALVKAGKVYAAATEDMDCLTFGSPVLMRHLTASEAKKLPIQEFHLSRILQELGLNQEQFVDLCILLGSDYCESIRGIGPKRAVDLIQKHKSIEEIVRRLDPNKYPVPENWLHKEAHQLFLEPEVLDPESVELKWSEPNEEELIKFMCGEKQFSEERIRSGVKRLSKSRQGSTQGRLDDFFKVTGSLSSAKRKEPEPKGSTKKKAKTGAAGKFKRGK

SMILES: C[C@@H]1C/C=C/C=C/C=C/C=C/[C@H](O[C@@H]2O[C@H](C)[C@@H](O)[C@H](N)[C@@H]2O)C[C@@H]2O[C@](O)(C[C@@H](O)C[C@H]3O[C@@H]3/C=C/C(=O)O1)C[C@H](O)[C@H]2C(=O)O [natamycin]
- inhibitory effect on FEN1 (FEN1): No inhibitory effect
- PNT1A cell proliferation, concentration dependence (PNT1A cells; 1 μM and 0.1 μM, both CSS and FBS medium): inhibited only with 10 μM
- time of treatment at which effect on PNT1A proliferation became evident (PNT1A cells; FBS and CSS media): 42 h
- PNT1A proliferation (PNT1A cells; both FBS and CSS supplemented media): proliferated in the presence of all inhibitors except natamycin
- toxicity (cell viability) in LNCaP (LNCaP cells): highest toxicity
- toxicity for prostate cancer cells in a mouse model (LAPC4 xenograft; LAPC4 xenograft, intravenously, 4 weeks): specific toxicity for prostate cancer cells
- tolerability by noncancerous tissues in a mouse model (LAPC4 xenograft; mouse, in vivo, iv): well-tolerated
- LAPC4 cellular proliferation and attachment (LAPC4 cells): abolished
- RWPE1 cell viability (RWPE1 cells): significantly decreased
- pol β 1 nt gap-filling synthesis (pol β; FIG. 8B, lanes 5-7): did not inhibit
- pol β strand-displacement synthesis (pol β; at 2 nM-5 nM): significant inhibitory effect
- reduction of pol β activity (pol β; at 10 (unit not given) natamycin, 5 nM pol β): 3 fold
